Results published in patent publication US11524938B2, “Aromatic sulfonamide derivatives” (Bayer Pharma Aktiengesellschaft, priority 2016, dated 2022).
“And” between values parts separate entries of the source, which are not always exact repeats. Equal values may be shown once.

Molecular target: T1, human P2X4 (Homo sapiens, UniProt Q99571)
T1 sequence (Q99571 1-388): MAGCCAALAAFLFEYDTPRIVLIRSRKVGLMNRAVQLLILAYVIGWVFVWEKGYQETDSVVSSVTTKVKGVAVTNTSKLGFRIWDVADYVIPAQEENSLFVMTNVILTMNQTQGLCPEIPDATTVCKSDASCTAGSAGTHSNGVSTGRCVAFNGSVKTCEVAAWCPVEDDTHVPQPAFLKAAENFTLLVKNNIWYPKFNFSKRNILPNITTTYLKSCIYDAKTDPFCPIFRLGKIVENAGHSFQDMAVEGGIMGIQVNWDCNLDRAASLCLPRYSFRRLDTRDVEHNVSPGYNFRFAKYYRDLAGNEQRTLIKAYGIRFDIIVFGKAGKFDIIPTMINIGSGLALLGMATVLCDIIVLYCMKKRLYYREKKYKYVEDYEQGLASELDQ
Test: Human P2X4 HEK Cell FLIPR Assay
Type: cell-based
Conditions: agonist Bz-ATP at EC80; for Emax: HEK293, HEK293 cells, percentage of maximal inhibition, read-out: Human P2X4 HEK Cells (FLIPR Assay) avg Efficacy [%]; for IC50: HEK293 cells, individual values listed where some fall outside detection range
In short: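 HEK293 cells stably expressing human P2X4, Fluo8-AM loaded 30 min at 37° C, then compound 30 min at room temperature (0.5% DMSO, pH 7.4 buffer with 1.8 mM CaCl2). Bz-ATP at its daily-determined EC80 added; calcium fluorescence read over 120 sec; IC50 from peak RFU normalized to agonist control, triplicates.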

Row | Structure (SMILES) | Emax | IC50
1 | NS(=O)(=O)c1cc(NC(=O)Cc2ccccc2F)ccc1-n1cc(CC(F)(F)F)cn1 [Example 519, 2-(2-Fluorophenyl)-N-{3-sulfamoyl-4-[4-(2,2,2-trifluoroethyl)-1H-pyrazol-1-yl]phenyl}acetamide] | 82% | 105 nM
2 | NS(=O)(=O)c1cc(NC(=O)Cc2ccccc2F)ccc1-c1nnc(C(F)F)o1 [Example 523, N-{4-[5-(Difluoromethyl)-1,3,4-oxadiazol-2-yl]-3-sulfamoylphenyl}-2-(2-fluorophenyl)acetamide] | 89% | 149 nM
3 | Cc1nnc(-c2ccc(NC(=O)Cc3ccccc3F)cc2S(N)(=O)=O)o1 [Example 525, 2-(2-Fluorophenyl)-N-[4-(5-methyl-1,3,4-oxadiazol-2-yl)-3-sulfamoylphenyl]acetamide] | 72% | 5170 nM
4 | Cc1ccc(CC(=O)Nc2ccc(-c3nnc(C)o3)c(S(N)(=O)=O)c2)cc1 [Example 526, N-[4-(5-Methyl-1,3,4-oxadiazol-2-yl)-3-sulfamoylphenyl]-2-(4-methylphenyl)acetamide] | 51% | 331 nM
5 | NS(=O)(=O)c1c(-n2cc(C(F)(F)F)cn2)ccc(NC(=O)Cc2ccccc2Cl)c1C(F)(F)F [Example 531, 2-(2-Chlorophenyl)-N-{3-sulfamoyl-2-(trifluoromethyl)-4-[4-(trifluoromethyl)-1H-pyrazol-1-yl]phenyl}acetamide] | 84% | 2320 nM
6 | NS(=O)(=O)c1cc(NC(=O)Cc2ccccc2Cl)c(C(F)(F)F)cc1-n1cc(C(F)(F)F)cn1 [Example 532, 2-(2-Chlorophenyl)-N-{5-sulfamoyl-2-(trifluoromethyl)-4-[4-(trifluoromethyl)-1H-pyrazol-1-yl]phenyl}acetamide] | 60% | 11500 nM and 12900 nM and 17000 nM
7 | NS(=O)(=O)c1cc(NC(=O)Cc2cccc(C(F)(F)F)c2Cl)c(C(F)(F)F)cc1-n1cc(C(F)(F)F)cn1 [Example 533, 2-[2-Chloro-3-(trifluoromethyl)phenyl]-N-{5-sulfamoyl-2-(trifluoromethyl)-4-[4-(trifluoromethyl)-1H-pyrazol-1-yl]phenyl}acetamide] | 26% | > 25000 nM
8 | NS(=O)(=O)c1cc(NC(=O)Cc2cc(C(F)(F)F)ccc2Cl)c(C(F)(F)F)cc1-n1cc(C(F)(F)F)cn1 [Example 534, 2-[2-Chloro-5-(trifluoromethyl)phenyl]-N-{5-sulfamoyl-2-(trifluoromethyl)-4-[4-(trifluoromethyl)-1H-pyrazol-1-yl]phenyl}acetamide] | 17% | > 25000 nM
9 | NS(=O)(=O)c1cc(NC(=O)Cc2c(Cl)cccc2C(F)(F)F)c(C(F)(F)F)cc1-n1cc(F)cn1 [Example 535, 2-[2-Chloro-6-(trifluoromethyl)phenyl]-N-[4-(4-fluoro-1H-pyrazol-1-yl)-5-sulfamoyl-2-(trifluoromethyl)phenyl]acetamide] | 91% | 3840 nM
10 | NS(=O)(=O)c1cc(NC(=O)Cc2cccc(C(F)(F)F)c2Cl)c(C(F)(F)F)cc1-n1cc(F)cn1 [Example 536, 2-[2-Chloro-3-(trifluoromethyl)phenyl]-N-[4-(4-fluoro-1H-pyrazol-1-yl)-5-sulfamoyl-2-(trifluoromethyl)phenyl]acetamide] | 67% | 12400 nM and 16800 nM
11 | NS(=O)(=O)c1cc(NC(=O)Cc2cc(C(F)(F)F)ccc2Cl)c(C(F)(F)F)cc1-n1cc(F)cn1 [Example 537, 2-[2-Chloro-5-(trifluoromethyl)phenyl]-N-[4-(4-fluoro-1H-pyrazol-1-yl)-5-sulfamoyl-2-(trifluoromethyl)phenyl]acetamide] | 95% | 3620 nM
12 | NS(=O)(=O)c1cc(NC(=O)Cc2ccc(C(F)(F)F)cc2Cl)c(C(F)(F)F)cc1-n1cc(F)cn1 [Example 538, 2-[2-Chloro-4-(trifluoromethyl)phenyl]-N-[4-(4-fluoro-1H-pyrazol-1-yl)-5-sulfamoyl-2-(trifluoromethyl)phenyl]acetamide] | 83% | 3910 nM
13 | NS(=O)(=O)c1cc(NC(=O)Cc2ccccc2Cl)ccc1-n1cc(Cl)c(C(F)(F)F)n1 [Example 541, 2-(2-Chlorophenyl)-N-{4-[4-chloro-3-(trifluoromethyl)-1H-pyrazol-1-yl]-3-sulfamoylphenyl}acetamide] | 50% | > 25000 nM

More lines, now with the values ahead:

Row | Emax | IC50 | Structure (SMILES)
14 | 76% | 43 nM | NS(=O)(=O)c1cc(NC(=O)Cc2ccccc2Cl)ccc1-c1noc(C2CC2)n1 [Example 520, 2-(2-Chlorophenyl)-N-[4-(5-cyclopropyl-1,2,4-oxadiazol-3-yl)-3-sulfamoylphenyl]acetamide]
15 | 52% | 6.9 µM and 17.2 µM and > 25 µM (4×) | NS(=O)(=O)c1cc(NC(=O)Cc2ccccc2Cl)ccc1-c1nc(C(F)(F)F)no1 [Example 521, 2-(2-Chlorophenyl)-N-{3-sulfamoyl-4-[3-(trifluoromethyl)-1,2,4-oxadiazol-5-yl]phenyl}acetamide]
16 | 87% | 71 nM | NS(=O)(=O)c1cc(NC(=O)Cc2ccccc2Cl)ccc1-c1nnc(C(F)F)o1 [Example 522, 2-(2-Chlorophenyl)-N-{4-[5-(difluoromethyl)-1,3,4-oxadiazol-2-yl]-3-sulfamoylphenyl}acetamide]
17 | 87% | 322 nM | Cc1nnc(-c2ccc(NC(=O)Cc3ccccc3Cl)cc2S(N)(=O)=O)o1 [Example 524, 2-(2-Chlorophenyl)-N-[4-(5-methyl-1,3,4-oxadiazol-2-yl)-3-sulfamoylphenyl]acetamide]
18 | 86% | 125 nM | NS(=O)(=O)c1cc(NC(=O)Cc2ccccc2Cl)ccc1-c1cc[nH]c1 [Example 527, 2-(2-Chlorophenyl)-N-[4-(1H-pyrrol-3-yl)-3-sulfamoylphenyl]acetamide]
19 | 95% | 42 nM | NS(=O)(=O)c1cc(NC(=O)Cc2ccccc2Cl)ccc1-c1c[nH]c(C(=O)C(F)F)c1 [Example 528, 2-(2-Chlorophenyl)-N-{4-[5-(difluoroacetyl)-1H-pyrrol-3-yl]-3-sulfamoylphenyl}acetamide]
20 | 92% | 72 nM | Cn1ccc(-c2ccc(NC(=O)Cc3ccccc3Cl)cc2S(N)(=O)=O)c1 [Example 529, 2-(2-Chlorophenyl)-N-[4-(1-methyl-1H-pyrrol-3-yl)-3-sulfamoylphenyl]acetamide]
21 | 112% | 33 nM | Cn1c(C#N)ccc1-c1ccc(NC(=O)Cc2ccccc2Cl)cc1S(N)(=O)=O [Example 530, 2-(2-Chlorophenyl)-N-[4-(5-cyano-1-methyl-1H-pyrrol-2-yl)-3-sulfamoylphenyl]acetamide]
22 | 103% | 127 nM | CC(C)(C)c1nn(-c2ccc(NC(=O)Cc3ccccc3Cl)cc2S(N)(=O)=O)cc1C#N [Example 539, N-[4-(3-tert-Butyl-4-cyano-1H-pyrazol-1-yl)-3-sulfamoylphenyl]-2-(2-chlorophenyl)acetamide]
23 | 79% | 1 nM | N#Cc1cn(-c2ccc(NC(=O)Cc3ccccc3Cl)cc2S(N)(=O)=O)nc1Br [Example 540, N-[4-(3-Bromo-4-cyano-1H-pyrazol-1-yl)-3-sulfamoylphenyl]-2-(2-chlorophenyl)acetamide]
24 | 97% | 20 nM | Cc1cn(-c2ccc(NC(=O)Cc3ccccc3Cl)cc2S(N)(=O)=O)nc1C [Example 542, 2-(2-Chlorophenyl)-N-[4-(3,4-dimethyl-1H-pyrazol-1-yl)-3-sulfamoylphenyl]acetamide]
25 | 98% | 267 nM | Cc1nn(-c2ccc(NC(=O)Cc3ccccc3Cl)cc2S(N)(=O)=O)c(C)c1Cl [Example 543, N-[4-(4-Chloro-3,5-dimethyl-1H-pyrazol-1-yl)-3-sulfamoylphenyl]-2-(2-chlorophenyl)acetamide]
26 | 85% | 1 nM | NS(=O)(=O)c1cc(NC(=O)Cc2ccccc2Cl)ccc1-n1cccn1 [Example 544, 2-(2-Chlorophenyl)-N-[4-(1H-pyrazol-1-yl)-3-sulfamoylphenyl]acetamide]
27 | 100% | 19 nM | Cc1cc(C#N)nn1-c1ccc(NC(=O)Cc2ccccc2Cl)cc1S(N)(=O)=O [Example 545, 2-(2-Chlorophenyl)-N-[4-(3-cyano-5-methyl-1H-pyrazol-1-yl)-3-sulfamoylphenyl]acetamide]
28 | 75% | 97 nM | Cc1cc(O)nn1-c1ccc(NC(=O)Cc2ccccc2Cl)cc1S(N)(=O)=O [Example 546, 2-(2-Chlorophenyl)-N-[4-(3-hydroxy-5-methyl-1H-pyrazol-1-yl)-3-sulfamoylphenyl]acetamide]
29 | 94% | 60 nM | Cc1c(C#N)cnn1-c1ccc(NC(=O)Cc2ccccc2Cl)cc1S(N)(=O)=O [Example 547, 2-(2-Chlorophenyl)-N-[4-(4-cyano-5-methyl-1H-pyrazol-1-yl)-3-sulfamoylphenyl]acetamide]
30 | 94% | 5 nM | Cc1nn(-c2ccc(NC(=O)Cc3ccccc3Cl)cc2S(N)(=O)=O)cc1C#N [Example 548, 2-(2-Chlorophenyl)-N-[4-(4-cyano-3-methyl-1H-pyrazol-1-yl)-3-sulfamoylphenyl]acetamide]
